Measured values reported in the supplement of paper PMC6045584.
± gives the standard deviation of the averaged measurements.

Key:
TIOGUANINE [1] = compound: T1, Nc1nc2[nH]cnc2c(=S)[nH]1 [TIOGUANINE]; assay: area under dose-response curve of surviving fraction (unscaled, Aref=0) (surviving fraction x log10(nM)); higher = more resistant; settings: exposure time: 5 days; dose range 0.5-1000 nM
Outline: (§1)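 Tumour cell lines in 384-well plates were exposed for five days to eight inhibitor concentrations from 0.5 to 1000 nM. Viability was read by CellTiter-Glo luminescence, normalised to DMSO-only wells, in three screens per line. Dose-response survival curves were fitted to surviving fractions by 3-parameter logistic regression in the drc R package. Area under the curve is the unscaled activity area (Aref = 0) over log10 dose.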

AFATINIB [2] = compound: T2, CN(C)C/C=C/C(=O)Nc1cc2c(Nc3ccc(F)c(Cl)c3)ncnc2cc1O[C@H]1CCOC1 [AFATINIB]; assay: as above; settings: exposure time: 5 days; dose range 0.5-1000 nM
Outline: as §1

MDV3100 [3] = compound: T3, CNC(=O)c1ccc(N2C(=S)N(c3ccc(C#N)c(C(F)(F)F)c3)C(=O)C2(C)C)cc1F [MDV3100]; assay: as above; settings: exposure time: 5 days; dose range 0.5-1000 nM
Outline: as §1

CANERTINIB [4] = compound: T4, C=CC(=O)Nc1cc2c(Nc3ccc(F)c(Cl)c3)ncnc2cc1OCCCN1CCOCC1 [CANERTINIB]; assay: as above; settings: exposure time: 5 days; dose range 0.5-1000 nM
Outline: as §1

SAPACITABINE [5] = compound: T5, CCCCCCCCCCCCCCCC(=O)Nc1ccn([C@@H]2O[C@H](CO)[C@@H](O)[C@@H]2C#N)c(=O)n1 [SAPACITABINE]; assay: as above; settings: exposure time: 5 days; dose range 0.5-1000 nM
Outline: as §1

SNX-5422 [6] = compound: T6, CC1(C)CC(=O)c2c(C(F)(F)F)nn(-c3ccc(C(N)=O)c(N[C@H]4CC[C@H](OC(=O)CN)CC4)c3)c2C1 [SNX-5422]; assay: as above; settings: exposure time: 5 days; dose range 0.5-1000 nM
Outline: as §1

BI-2536 [7] = compound: T7, CC[C@@H]1C(=O)N(C)c2cnc(Nc3ccc(C(=O)NC4CCN(C)CC4)cc3OC)nc2N1C1CCCC1 [BI-2536]; assay: as above; settings: exposure time: 5 days; dose range 0.5-1000 nM
Outline: as §1

[8] = compound: Cn1cc(C2=Nc3cc(NC(=O)C(N)C4CCCCC4)cc4c3C2=CNNC4=O)cn1; assay: as above; settings: exposure time: 5 days; dose range 0.5-1000 nM
Outline: as §1

TIOGUANINE [9] = compound: T1, TIOGUANINE; assay: surviving fraction relative to DMSO-only wells; higher = less growth inhibition; settings: exposure time: 5 days
Outline: (§2)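 Log-phase tumour cells were seeded at 250–500 per well in 384-well plates and, from 24 hours after seeding, exposed continuously for five days to inhibitors at 0.5, 1, 5, 10, 50, 100, 500 and 1000 nM. Surviving fraction is CellTiter-Glo luminescence normalised to the median of DMSO-only wells. Luminescence was measured after 10 minutes at room temperature, and only lines screened three times with replicate Pearson r >0.7 and median Z' >0.3 were kept.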

AFATINIB [10] = compound: T2, AFATINIB; assay: as above; settings: exposure time: 5 days
Outline: as §2

MDV3100 [11] = compound: T3, MDV3100; assay: as above; settings: exposure time: 5 days
Outline: as §2

CANERTINIB [12] = compound: T4, CANERTINIB; assay: as above; settings: exposure time: 5 days
Outline: as §2

SAPACITABINE [13] = compound: T5, SAPACITABINE; assay: as above; settings: exposure time: 5 days
Outline: as §2

SNX-5422 [14] = compound: T6, SNX-5422; assay: as above; settings: exposure time: 5 days
Outline: as §2

BI-2536 [15] = compound: T7, BI-2536; assay: as above; settings: exposure time: 5 days
Outline: as §2

[16] = compound: Cn1cc(C2=Nc3cc(NC(=O)C(N)C4CCCCC4)cc4c3C2=CNNC4=O)cn1; assay: as above; settings: exposure time: 5 days
Outline: as §2

For MFM223 BREAST, which “area under dose-response curve” value (TIOGUANINE [1]) is on record?
Its value is 3.53.

What about the “area under dose-response curve” value (AFATINIB [2]) of the same test system?
The value was 3.2.

What about the “area under dose-response curve” value (MDV3100 [3]) of the same test system?
The value was 3.56.

And the “area under dose-response curve” value (CANERTINIB [4])?
Its value is 2.88.

What about the “area under dose-response curve” value (SAPACITABINE [5]) of the same test system?
Its value is 2.85.

And the “area under dose-response curve” value (SNX-5422 [6])?
Its value is 2.02.

And the “area under dose-response curve” value (BI-2536 [7])?
The value was 0.566.

And the “area under dose-response curve” value [8]?
The value was 2.38.

What about the surviving fraction (TIOGUANINE [9]; 0.5 nM) of the same test system?
The surviving fraction was 1.01 ± 0.13.

And the surviving fraction (TIOGUANINE [9]; 1 nM)?
The surviving fraction was 0.997 ± 0.062.

And the surviving fraction (TIOGUANINE [9]; 5 nM)?
The surviving fraction was 1.09 ± 0.037.

What about the surviving fraction (TIOGUANINE [9]; 10 nM) of the same test system?
Its surviving fraction is 1.041 ± 0.009.

And the surviving fraction (TIOGUANINE [9]; 50 nM)?
Its surviving fraction is 1.13 ± 0.031.

And the surviving fraction (TIOGUANINE [9]; 100 nM)?
The surviving fraction was 1.13 ± 0.045.

What about the surviving fraction (TIOGUANINE [9]; 500 nM) of the same test system?
The surviving fraction was 1.05 ± 0.074.

And the surviving fraction (TIOGUANINE [9]; 1000 nM)?
Its surviving fraction is 1 ± 0.068.

What about the surviving fraction (AFATINIB [10]; 0.5 nM) of the same test system?
The surviving fraction was 1.13 ± 0.076.

And the surviving fraction (AFATINIB [10]; 1 nM)?
The surviving fraction was 1.16 ± 0.11.

What about the surviving fraction (AFATINIB [10]; 5 nM) of the same test system?
Its surviving fraction is 1.13 ± 0.097.

What about the surviving fraction (AFATINIB [10]; 10 nM) of the same test system?
Its surviving fraction is 1.13 ± 0.031.

What about the surviving fraction (AFATINIB [10]; 50 nM) of the same test system?
The surviving fraction was 1.11 ± 0.086.

And the surviving fraction (AFATINIB [10]; 100 nM)?
Its surviving fraction is 1.04 ± 0.1.

What about the surviving fraction (AFATINIB [10]; 500 nM) of the same test system?
The surviving fraction was 0.803 ± 0.059.

And the surviving fraction (AFATINIB [10]; 1000 nM)?
The surviving fraction was 0.365 ± 0.021.

And the surviving fraction (MDV3100 [11]; 0.5 nM)?
Its surviving fraction is 1.1 ± 0.12.

What about the surviving fraction (MDV3100 [11]; 1 nM) of the same test system?
The surviving fraction was 1.14 ± 0.17.

And the surviving fraction (MDV3100 [11]; 5 nM)?
Its surviving fraction is 1.19 ± 0.17.

And the surviving fraction (MDV3100 [11]; 10 nM)?
The surviving fraction was 1.12 ± 0.17.

And the surviving fraction (MDV3100 [11]; 50 nM)?
The surviving fraction was 1.06 ± 0.074.

What about the surviving fraction (MDV3100 [11]; 100 nM) of the same test system?
Its surviving fraction is 1.08 ± 0.041.

And the surviving fraction (MDV3100 [11]; 500 nM)?
The surviving fraction was 1.09 ± 0.036.

And the surviving fraction (MDV3100 [11]; 1000 nM)?
The surviving fraction was 1.02 ± 0.095.

What about the surviving fraction (CANERTINIB [12]; 0.5 nM) of the same test system?
Its surviving fraction is 0.817 ± 0.075.

And the surviving fraction (CANERTINIB [12]; 1 nM)?
Its surviving fraction is 0.898 ± 0.12.

And the surviving fraction (CANERTINIB [12]; 5 nM)?
The surviving fraction was 0.84 ± 0.14.

What about the surviving fraction (CANERTINIB [12]; 10 nM) of the same test system?
The surviving fraction was 0.808 ± 0.01.

And the surviving fraction (CANERTINIB [12]; 50 nM)?
The surviving fraction was 0.958 ± 0.077.

What about the surviving fraction (CANERTINIB [12]; 100 nM) of the same test system?
Its surviving fraction is 1 ± 0.034.

And the surviving fraction (CANERTINIB [12]; 500 nM)?
Its surviving fraction is 0.874 ± 0.013.

And the surviving fraction (CANERTINIB [12]; 1000 nM)?
Its surviving fraction is 0.794 ± 0.029.

What about the surviving fraction (SAPACITABINE [13]; 0.5 nM) of the same test system?
The surviving fraction was 0.839 ± 0.092.

And the surviving fraction (SAPACITABINE [13]; 1 nM)?
The surviving fraction was 0.82 ± 0.11.

And the surviving fraction (SAPACITABINE [13]; 5 nM)?
The surviving fraction was 0.83 ± 0.089.

And the surviving fraction (SAPACITABINE [13]; 10 nM)?
The surviving fraction was 0.8 ± 0.045.

And the surviving fraction (SAPACITABINE [13]; 50 nM)?
The surviving fraction was 0.933 ± 0.12.

What about the surviving fraction (SAPACITABINE [13]; 100 nM) of the same test system?
Its surviving fraction is 0.939 ± 0.026.

What about the surviving fraction (SAPACITABINE [13]; 500 nM) of the same test system?
Its surviving fraction is 0.903 ± 0.074.

What about the surviving fraction (SAPACITABINE [13]; 1000 nM) of the same test system?
Its surviving fraction is 0.77 ± 0.1.

And the surviving fraction (SNX-5422 [14]; 0.5 nM)?
Its surviving fraction is 1.16 ± 0.032.

And the surviving fraction (SNX-5422 [14]; 1 nM)?
The surviving fraction was 1.1 ± 0.029.

And the surviving fraction (SNX-5422 [14]; 5 nM)?
Its surviving fraction is 1.06 ± 0.025.

What about the surviving fraction (SNX-5422 [14]; 10 nM) of the same test system?
Its surviving fraction is 1.08 ± 0.074.

And the surviving fraction (SNX-5422 [14]; 50 nM)?
Its surviving fraction is 0.254 ± 0.014.

And the surviving fraction (SNX-5422 [14]; 100 nM)?
The surviving fraction was 0.152 ± 0.016.

And the surviving fraction (SNX-5422 [14]; 500 nM)?
Its surviving fraction is 0.111 ± 0.0051.

And the surviving fraction (SNX-5422 [14]; 1000 nM)?
The surviving fraction was 0.116 ± 0.0013.

And the surviving fraction (BI-2536 [15]; 0.5 nM)?
The surviving fraction was 0.818 ± 0.041.

What about the surviving fraction (BI-2536 [15]; 1 nM) of the same test system?
The surviving fraction was 0.338 ± 0.017.

What about the surviving fraction (BI-2536 [15]; 5 nM) of the same test system?
The surviving fraction was 0.0768 ± 0.0068.

What about the surviving fraction (BI-2536 [15]; 10 nM) of the same test system?
Its surviving fraction is 0.0932 ± 0.0063.

And the surviving fraction (BI-2536 [15]; 50 nM)?
The surviving fraction was 0.137 ± 0.012.

And the surviving fraction (BI-2536 [15]; 100 nM)?
Its surviving fraction is 0.148 ± 0.012.

And the surviving fraction (BI-2536 [15]; 500 nM)?
Its surviving fraction is 0.141 ± 0.011.

And the surviving fraction (BI-2536 [15]; 1000 nM)?
The surviving fraction was 0.106 ± 0.016.

And the surviving fraction ([16]; 0.5 nM)?
The surviving fraction was 1.15 ± 0.029.

And the surviving fraction ([16]; 1 nM)?
Its surviving fraction is 1.1 ± 0.012.

And the surviving fraction ([16]; 5 nM)?
The surviving fraction was 1.09 ± 0.11.

And the surviving fraction ([16]; 10 nM)?
The surviving fraction was 1.05 ± 0.069.

What about the surviving fraction ([16]; 50 nM) of the same test system?
The surviving fraction was 0.748 ± 0.047.

And the surviving fraction ([16]; 100 nM)?
The surviving fraction was 0.408 ± 0.036.

And the surviving fraction ([16]; 500 nM)?
Its surviving fraction is 0.226 ± 0.018.

What about the surviving fraction ([16]; 1000 nM) of the same test system?
The surviving fraction was 0.193 ± 0.025.
